Experimental findings from patent US11111251B2, “Positive allosteric modulators of the muscarinic acetylcholine receptor M1” (Vanderbilt University, priority 2016, dated 2021) are described below.

Like-named read-outs stand apart in the source and are kept apart here.

For this assay, the target named is T1, human mAChR M1 (Homo sapiens, UniProt P11229).
T1 sequence (P11229 1-460): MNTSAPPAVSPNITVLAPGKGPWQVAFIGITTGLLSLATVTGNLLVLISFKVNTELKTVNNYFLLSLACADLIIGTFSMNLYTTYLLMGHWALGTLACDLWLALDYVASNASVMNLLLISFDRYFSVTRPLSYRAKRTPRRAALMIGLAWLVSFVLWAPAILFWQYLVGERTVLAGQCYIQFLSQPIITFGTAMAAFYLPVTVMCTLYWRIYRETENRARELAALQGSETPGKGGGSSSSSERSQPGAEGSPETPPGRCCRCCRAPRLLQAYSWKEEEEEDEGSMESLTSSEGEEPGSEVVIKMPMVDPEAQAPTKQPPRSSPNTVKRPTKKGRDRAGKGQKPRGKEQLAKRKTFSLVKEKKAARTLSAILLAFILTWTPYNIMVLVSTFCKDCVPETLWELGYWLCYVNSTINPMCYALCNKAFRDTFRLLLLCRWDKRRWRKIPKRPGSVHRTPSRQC
The experiment in a line: mAChR M1 cell-based functional assay: calcium mobilization, positive allosteric modulator mode (increase in EC20 acetylcholine response). The following applies: for Emax: read-out: Human M1 Emax (%). Summed up:
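Calcium-flux assay in CHO-K1 cells stably expressing human M1, loaded with Fluo-4 AM (50 min, 37 °C) and read at 1 Hz. Compound (11-point, 1:3 series) was added at 4 s, EC20 acetylcholine at 144 s and EC80 at 230 s. PAM activity is the concentration-dependent rise in the EC20 response, fitted with a four-parameter logistic.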

Where [1] appears, read: Table 2, human M1, read-out: Human M1 EC50.
Setting [2] is: Table 1, mAChR M1 cell-based functional assay, PAM mode, species not given, read-out: EC50.

In general, EC50 refers to the concentration that produces a half-maximal response. As a reminder, the Emax is the maximal effect, on the per cent scale that the assay sets. For the molecule `O=C(NCC1CCOC1)c1cc(Cc2ccc(-c3nccs3)cc2)c2sccc2n1` (centres unmarked) [Compound 374, N-(tetrahydrofuran-3-ylmethyl)-7-[(4-thiazol-2-ylphenyl)methyl]thieno[3,2-b]pyridine-5-carboxamide], under setting [1], the 50% effective concentration (EC50) was 556 nM. The maximum response (Emax) (Table 2, human M1) was 73.1%.
As for `Cn1cc(-c2ccc(Oc3cc(C(=O)N[C@H]4CCCCC[C@@H]4O)nc4ccsc34)c(F)c2)cn1` [Compound 9], the EC50 under setting [2] was more than 10000 nM.
`Cn1cc(-c2ccc(Cc3cc(C(=O)NCC4CCOCC4)nc4ccsc34)cn2)cn1` [Compound 334, 7-[[6-(1-methylpyrazol-4-yl)-3-pyridyl]methyl]-N-(tetrahydropyran-4-ylmethyl)thieno[3,2-b]pyridine-5-carboxamide]: under setting [1], the concentration giving a half-maximal response (EC50) amounted to 103 nM. For the same molecule, under “Table 2, human M1”, the maximum response (Emax) was found to be 83%.
In the case of `Cn1ccc(-c2ccc(Cc3cc(C(=O)N[C@H]4CCCC[C@@H]4O)nc4ccsc34)cc2)n1` [Compound 256, N-[(1S,2S)-2-hydroxycyclohexyl]-7-[[4-(1-methylpyrazol-3-yl)phenyl]methyl]thieno[3,2-b]pyridine-5-carboxamide], the EC50 under setting [1] amounted to 57.6 nM. Further, the maximal effect (Emax) (Table 2, human M1) was 50%.
`Cc1ccc(Oc2cc(C(=O)N[C@H]3CCCC[C@@H]3O)nc3ccsc23)cn1` [Compound 21, N-[(1S,2S)-2-hydroxycyclohexyl]-7-[(6-methyl-3-pyridyl)oxy]thieno[3,2-b]pyridine-5-carboxamide]: the EC50 under setting [2] turned out to be 1140 nM.
For `Cc1ccc(Cc2cc(C(=O)N[C@@H]3CCC[C@H]3O)nc3c(C)csc23)cn1` [Compound 100], under setting [1], the concentration giving a half-maximal response (EC50) is 654 nM. For the setting “Table 2, human M1”, the Emax worked out at 87.5%.
For the molecule `O=C(NC12CC3CC(CC(O)(C3)C1)C2)c1cc(Cc2ccc(C(F)(F)F)nc2)c2sccc2n1` [Compound 95, N-(3-hydroxy-1-adamantyl)-7-[[6-(trifluoromethyl)-3-pyridyl]methyl]thieno[3,2-b]pyridine-5-carboxamide], the EC50 under setting [1] stood at 3130 nM. Also, the maximal effect (Emax) (Table 2, human M1) was determined as 34.2%.
Taken in the same sequence, the figures for `O=C(NC1CCOCC1)c1cc(Cc2ccc(-c3cncs3)cc2)c2sccc2n1` [Compound 394, N-tetrahydropyran-4-yl-7-[(4-thiazol-5-ylphenyl)methyl]thieno[3,2-b]pyridine-5-carboxamide] were 233 nM and 65.5%.
The corresponding values for `Cn1ccc2nc(C(=O)NC3CC(F)(F)C3)cc(Cc3ccc(-c4nccs4)cc3)c21` [Compound 487, N-(3,3-difluorocyclobutyl)-1-methyl-7-[(4-thiazol-2-ylphenyl)methyl]pyrrolo[3,2-b]pyridine-5-carboxamide] are 819 nM and 25.5%.
Taken in the same sequence, the figures for `Cn1ccc(-c2ccc(Cc3cc(C(=O)NC4CCOC(C)(C)C4)nc4ccsc34)cn2)n1` (centres unmarked) [Compound 378, N-(2,2-dimethyltetrahydropyran-4-yl)-7-[[6-(1-methylpyrazol-3-yl)-3-pyridyl]methyl]thieno[3,2-b]pyridine-5-carboxamide] were 167 nM and 58.9%.
As to `Cc1ncc(Cc2cc(C(=O)N[C@@H]3COCC[C@H]3O)nc3ccsc23)cn1` [Compound 129, N-[(3R,4R)-4-hydroxytetrahydropyran-3-yl]-7-[(2-methylpyrimidin-5-yl)methyl]thieno[3,2-b]pyridine-5-carboxamide], under setting [1], the half-maximal effective concentration (EC50) was more than 10000 nM. Further, where the note is “Table 2, human M1”, the Emax was 51.5%.
Taken in the same sequence, the figures for `CC1COCCC1NC(=O)c1cc(Cc2ccc(-n3cccn3)cc2)c2sccc2n1` (centres unmarked) [Compound 444, N-(3-methyltetrahydropyran-4-yl)-7-[(4-pyrazol-1-ylphenyl)methyl]thieno[3,2-b]pyridine-5-carboxamide] were 263 nM and 71%.
Taken in the same sequence, the figures for `O=C(N[C@H]1CCOC[C@@H]1O)c1cc(Cc2c(F)cc(-c3cscn3)cc2F)c2sccc2n1` [Compound 270, 7-[(2,6-difluoro-4-thiazol-4-yl-phenyl)methyl]-N-[(3R,4S)-3-hydroxytetrahydropyran-4-yl]thieno[3,2-b]pyridine-5-carboxamide] were 39.7 nM and 78.5%.
Taken in the same sequence, the figures for `CO[C@H]1CCCC[C@@H]1NC(=O)c1cc(Cc2ccc(-c3cscn3)cc2)c2sccc2n1` [Compound 218, N-[(1S,2S)-2-methoxycyclohexyl]-7-[(4-thiazol-4-ylphenyl)methyl]thieno[3,2-b]pyridine-5-carboxamide] were more than 10000 nM and 52.2%.
Turning to `Cc1csc2c(Cc3ccc(-c4ccn(C)n4)cc3)cc(C(=O)NC3CC(F)(F)C3)nc12` [Compound 309, N-(3,3-difluorocyclobutyl)-3-methyl-7-[[4-(1-methylpyrazol-3-yl)phenyl]methyl]thieno[3,2-b]pyridine-5-carboxamide], under setting [1], the EC50 was 4930 nM. Moreover, the maximal effect (Emax) (Table 2, human M1) came to 57.3%.
The corresponding values for `Cc1ccc([C@@H](F)c2cc(C(=O)N[C@H]3CCCC[C@@H]3O)nc3ccsc23)cn1` [Compound 234] are 1370 nM and 64.6%.
Regarding `Cc1ncc(Cc2cc(C(=O)NC3CCCCNC3=O)nc3ccsc23)s1` (centres unmarked) [Compound 144, 7-[(2-methylthiazol-5-yl)methyl]-N-(2-oxoazepan-3-yl)thieno[3,2-b]pyridine-5-carboxamide], the EC50 under setting [1] is more than 10000 nM. The Emax (Table 2, human M1) amounted to 50.7%.
Taken in the same sequence, the figures for `Cn1ccc(-c2ccc(Cc3cc(C(=O)N[C@H]4CCCCC[C@@H]4O)nc4ccsc34)cn2)n1` [Compound 411] were 77 nM and 57.6%.
Take `Cn1cc(-c2ccc(Oc3cc(C(=O)N[C@H]4CCCC[C@@H]4O)nc4ccsc34)c(F)c2)cn1` [Compound 2, 7-[2-fluoro-4-(1-methylpyrazol-4-yl)phenoxy]-N-[(1S,2S)-2-hydroxycyclohexyl]thieno[3,2-b]pyridine-5-carboxamide]: under setting [2], the half-maximal effective concentration (EC50) worked out at 2150 nM.
Turning to `CN1CCC(NC(=O)c2cc(Cc3ccc(-n4cccn4)cc3)c3sccc3n2)CC1` [Compound 443, N-(1-methyl-4-piperidyl)-7-[(4-pyrazol-1-ylphenyl)methyl]thieno[3,2-b]pyridine-5-carboxamide], under setting [1], the EC50 came to 1480 nM. Also, for the setting “Table 2, human M1”, the Emax is 66.6%.
In the case of `Cn1cc2c(-c3ccc(Oc4cc(C(=O)N[C@H]5COCC[C@@H]5O)nc5ccsc45)c(F)c3)cccc2n1` [Compound 14], the EC50 under setting [2] was determined as 4250 nM.
With `Cn1ncc2nc(C(=O)N[C@@H]3CC[C@H]3O)cc(Cc3ccc(-n4cccn4)cc3)c21` [Compound 496, N-[(1R,2R)-2-hydroxycyclobutyl]-1-methyl-7-[(4-pyrazol-1-ylphenyl)methyl]pyrazolo-[4,3-b]pyridine-5-carboxamide], the EC50 under setting [1] is more than 10000 nM. Where the note is “Table 2, human M1”, the Emax worked out at 65.7%.
The corresponding values for `Cc1nc(-c2ccc(Cc3cc(C(=O)NC4CCOC(C)(C)C4)nc4ccsc34)cc2)co1` (centres unmarked) [Compound 300, N-(2,2-dimethyltetrahydropyran-4-yl)-7-[[4-(2-methyloxazol-4-yl)phenyl]methyl]thieno[3,2-b]pyridine-5-carboxamide] are 225 nM and 75.3%.
The corresponding values for `Cn1ncc2nc(C(=O)NC3CC4(COC4)C3)cc(Cc3ccc(-c4cscn4)cc3)c21` [Compound 489, 1-Methyl-N-(2-oxaspiro[3.3]heptan-6-yl)-7-[(4-thiazol-4-ylphenyl)methyl]pyrazolo[4,3-b]pyridine-5-carboxamide] are 2750 nM and 52%.
Taken in the same sequence, the figures for `Cc1ccc(Cc2cc(C(=O)N[C@@H]3CCCCC[C@H]3O)nc3c(C)csc23)cn1` [Compound 107] were 474 nM and 88.5%.
In the case of `O=C(NC1COC1)c1cc(Cc2ccc(-c3cscn3)cc2)c2sccc2n1` [Compound 202, N-(oxetan-3-yl)-7-[(4-thiazol-4-ylphenyl)methyl]thieno[3,2-b]pyridine-5-carboxamide], the EC50 under setting [1] was found to be 1370 nM. Also, the maximum response (Emax) (Table 2, human M1) amounted to 63.7%.
Take `Cn1ccc2nc(C(=O)N[C@H]3CCOC[C@@H]3O)cc(Cc3ccc(-c4cscn4)cc3)c21` [Compound 450, N-[(3R,4S)-3-hydroxytetrahydropyran-4-yl]-1-methyl-7-[(4-thiazol-4-ylphenyl)methyl]pyrrolo[3,2-b]pyridine-5-carboxamide]: the 50% effective concentration (EC50) under setting [1] was 6.89 nM. Further, the Emax (Table 2, human M1) is 71%.
The corresponding values for `Cn1cc(-c2cc(F)c(Cc3cc(C(=O)N[C@H]4COCC[C@@H]4O)nc4ccsc34)c(F)c2)cn1` [Compound 60, 7-[[2,6-difluoro-4-(1-methylpyrazol-4-yl)phenyl]methyl]-N-[(3S,4S)-4-hydroxytetrahydropyran-3-yl]thieno[3,2-b]pyridine-5-carboxamide] are 5600 nM and 71.6%.
Taken in the same sequence, the figures for `Cc1nc(-c2ccc(Cc3cc(C(=O)N[C@@H]4CCOC[C@H]4O)nc4ccsc34)cc2)co1` [Compound 166, N-[(3S,4R)-3-hydroxytetrahydropyran-4-yl]-7-[[4-(2-methyloxazol-4-yl)phenyl]methyl]thieno[3,2-b]pyridine-5-carboxamide] were 16.8 nM and 81.6%.
As for `O=C(NCc1cc[nH]n1)c1cc(Cc2ccc(-n3cccn3)cc2)c2sccc2n1` [Compound 448, N-(1H-pyrazol-3-ylmethyl)-7-[(4-pyrazol-1-ylphenyl)methyl]thieno[3,2-b]pyridine-5-carboxamide], under setting [1], the EC50 was determined as 795 nM. In addition, the Emax (Table 2, human M1) came out at 67.8%.
